Where two headings read alike, the source gives them in different places.
What was measured:
[1] = tested on: APC−/−; TdTomato+ (A-tdt) organoids; test: Viability of A-tdt murine colorectal cancer organoids, resazurin assay; type: cell-based; settings: 72-h exposure (table title), read-out: IC50 against A-tdt organoids
From the text: (§1) Colonic crypts were isolated and colon organoids were generated from the following mouse genotypes on a C57Bl/6 background: 1. Rosa-LSL-TdTomato (hereafter LSL-tdt), 2. P53^f1/f1; LSL-tdt, and 3. LSL-KRAS^G12D/WT; P53^fl/fl; LSL-tdt mice. Subsequently, the pSECC-APC plasmid (carrying Cre, Cas9, and sgAPC) was transfected into each of the above three genotypes of colon organoids. This transfection strategy generated, in a single step, the following colorectal cancer organoids, including 1. APC^−/−; TdTomato^+ (A-tdt), 2. APC^−/−; P53^−/−; TdTomato^+ (AP-tdt), and 3. APC^−/−; KRAS^G12D/WT; P53^−/−; TdTomato^+ (AKP-tdt). Organoids of the desired genotype were selected for by Wnt/Rspo withdrawal for APC^−/−, Nutlin-3 addition for P53^−/−, and EGF withdrawal for KRAS^G12D.
(§2) Twenty four hours after seeding the organoids, a media change was performed and dose responses of oxaliplatin, doxorubicin and doxaliplatin were added. […] Organoids were cultured in Advanced DMEM/F12 supplemented with 2 mM GlutaMAX, 1% Penicillin-Streptomycin, 2% B27, and Y-27632 (10 μM).

[2] = tested on: APC−/−; P53−/−; TdTomato+ (AP-tdt) organoids; test: Viability of AP-tdt murine colorectal cancer organoids, resazurin assay; type: cell-based; settings: 72-h exposure (table title), read-out: IC50 against AP-tdt organoids
From the text: as §1, §2

[3] = tested on: APC−/−; KRASG12D/WT; P53−/−; TdTomato+ (AKP-tdt) organoids; test: Viability of AKP-tdt murine colorectal cancer organoids, resazurin assay; type: cell-based; settings: 72-h exposure (table title), read-out: IC50 against AKP-tdt organoids
From the text: as §1, §2

[4] = tested on: APC−/−; KRASG12D/WT; P53−/− (AKP) organoids; test: Viability of AKP murine colorectal cancer organoids; type: cell-based; settings: 72-h exposure, read-out: IC50 against AKP organoids
From the text: (§3) To generate 4. APC^−/−; KRAS^G12D/WT; P53^−/−; (AKP) and 5. APC^−/−; KRAS^G12D/WT; P53^−/−; MSH2^−/− (AKP-MSH2) colon cancer organoids, colonic crypts were isolated and colon organoids were generated from the following mouse genotypes on a C57Bl/6 background: 4. LSL-KRAS^G12D/WT; P53^fl/fl mice and 5. LSL-KRAS^G12D; P53^fl/fl; MSH2^fl/fl mice. Subsequently, the pSECC-APC plasmid (carrying Cre, Cas9, and sgAPC) was transfected into each of the above two genotypes of colon organoids. Following pSECC-APC transfection, Wnt/Rspo withdrawal was performed and surviving (APC^−/−) single organoids were cloned and PCR genotyped for Cre mediated deletion of p53 and/or MSH2, and for Cre mediated activation of oncogenic KRAS^G12D.
as §2

[5] = tested on: APC−/−; KRASG12D/WT; P53−/−; MSH2−/− (AKP-MSH2) organoids; test: Viability of AKP-MSH2 murine colorectal cancer organoids; type: cell-based; settings: 72-h exposure, read-out: IC50 against AKP-MSH2 organoids
From the text: as §3, §2

[6] = tested on: HT-29 human colorectal adenocarcinoma; test: Cell growth, resazurin assay, HT-29; type: cell-based; settings: 96-h exposure (table title), read-out: IC50 HT-29 (colon)
Description: (§4) Cells were cultured in 10 mL of Advanced DMEM/F12 (ADMEM/F12), supplemented with 5% FBS, 2 mM GlutaMAX, and 1% Penicillin-Streptomycin in 10 cm tissue culture plates. Cells were then plated into 96-well plates with about 2.5×10^3 cells per well. Cells were plated with 200 μL per well of ADMEM/F12 supplemented with 5% FBS, 2 mM GlutaMAX, and 1% Penicillin-Streptomycin. Cells were treated with dose responses of doxorubicin, oxaliplatin, or doxaliplatin upon plating. The cells were then cultured for 72 hours following drug treatment, and cell growth was measured by resazurin assay.

[7] = tested on: MDA-MB-231 human breast adenocarcinoma; test: Cell growth, resazurin assay, MDA-MB-231; type: cell-based; settings: 96-h exposure (table title)
Description: as §4

[8] = tested on: PC3 human prostate adenocarcinoma; test: Cell growth, resazurin assay, PC3; type: cell-based; settings: 96-h exposure (table title)
Description: as §4

U2OS human osteosarcoma = test: Cell growth, resazurin assay, U2OS; type: cell-based; settings: 96-h exposure (table title), read-out: IC50 U2OS (bone)
Description: as §4

[9] = tested on: A549 human lung carcinoma; test: Cell growth, resazurin assay, A549; type: cell-based; settings: 96-h exposure (table title)
Description: as §4

[10] = tested on: HL60 human leukemia cell line; test: Cell growth, resazurin assay, HL60; type: cell-based; settings: 96-h exposure (table title)
Description: as §4

[11] = tested on: A2780 human ovarian cancer cell line; test: Cell growth, resazurin assay, A2780; type: cell-based; settings: A2780, 72-h exposure
Description: as §4

[12] = tested on: doxorubicin-resistant A2780ADR human ovarian cancer cell line; test: Cell growth, resazurin assay, A2780ADR; type: cell-based; settings: 72-h exposure
Description: as §4

[13] = tested on: cisplatin-resistant A2780CIS human ovarian cancer cell line; test: Cell growth, resazurin assay, A2780CIS; type: cell-based; settings: 72-h exposure
Description: as §4

[14] = tested on: OVCAR8 human ovarian cancer cell line; test: Cell growth, resazurin assay, OVCAR8; type: cell-based; settings: 72-h exposure
Description: as §4

[15] = tested on: doxorubicin-resistant A2780ADR ovarian cancer cell line
Description: (§5) ICP-MS was performed on an Agilent 7900 ICP-MS in helium mode.
(§6) The cells in a six-well plate were treated with oxaliplatin, doxaliplatin, or a mixture of doxorubicin and oxaliplatin at indicated concentration in 2 mL of Advanced DMEM/F12 (ADMEM/F12), supplemented with 5% FBS, 2 mM GlutaMAX, and 1% Penicillin-Streptomycin. After three hours, the media were removed. The cells were washed with xl PBS buffer containing EDTA (100 μM, 4 mL×2). To each well, MilliQ water (1.0 mL) was added. After 15 min, the cells were suspended. A portion of the resulting cell lysate (900 μL) was transferred to an Eppendorf tube. The samples were frozen in liquid nitrogen and thawed at room temperature. This procedure was repeated for three times. The insoluble lysate was pelleted (10000 rpm for 10 min). […] Pierce 660 nm Protein solution (200 μL) was added to each well. An aliquot of the lysate (14.2 μL) was added to each well. The plate was shaken and read on a plate reader. The remaining samples were frozen at liquid nitrogen temperature and lyophilized. The dried material was digested with Aristar® ultrapure concentrated nitric acid (70%) at 70° C. for one hour. An aliquot of this solution (142 μL) was mixed with molecular biology grade water (2000 μL) and a terbium internal standard (40 μL, 100 ppb). The platinum content was then determined using an Agilent 7900 ICP-MS in helium mode. The concentration of platinum in the cells was normalized to measured protein concentration described above.

[16] = tested on: OVCAR8-OXR oxaliplatin-resistant human ovarian cancer cell line; test: Cell growth, resazurin assay, OVCAR8-OXR; settings: for Fold Resistance (IC50, OVCAR8OXR vs OVCAR8): based on IC50 values; for Fold Resistance (IC80, OVCAR8OXR vs OVCAR8): based on IC80 values; for IC50: read-out: IC50 OVCAR8OXR; for IC80: read-out: IC80 OVCAR8OXR
Description: Cells were cultured in 10 mL of Advanced DMEM/F12 (ADMEM/F12), supplemented with 5% FBS, 2 mM GlutaMAX, and 1% Penicillin-Streptomycin in 10 cm tissue culture plates. Cells were then plated into 96-well plates with about 2.5×10^3 cells per well. Cells were plated with 200 μL per well of ADMEM/F12 supplemented with 5% FBS, 2 mM GlutaMAX, and 1% Penicillin-Streptomycin. […] The cells were then cultured for 72 hours following drug treatment, and cell growth was measured by resazurin assay.

[17] = tested on: A2780 human ovarian cancer cell line; test: Whole-cell platinum uptake by ICP-MS, A2780; settings: three hours
Description: as §5, §6

[18] = tested on: A2780 human ovarian cancer cell line; settings: human, 3 h
Description: as §5, §6

For `O=C1[O][Pt]2([NH][C@@H]3CCCC[C@H]3[NH]2)[O]C1=O` [Ox, oxaliplatin], the IC50 [1] was 2200 nM, the IC50 [2] was 1500 nM and the IC50 [3] was 4100 nM. It also gave an IC50 [4] of 1400 nM, an IC50 [5] of 2200 nM and an IC50 [6] of 470 nM. It also gave an IC50 [7] of 920 nM, an IC50 [8] of 1000 nM and an IC50 (U2OS human osteosarcoma) of 580 nM. It also gave an IC50 [9] of 400 nM, an IC50 [10] of 560 nM and an IC50 [11] of 170 nM. The IC90 [11] was 590 nM, the IC95 [11] was 5600 nM and the IC50 [12] was 430 nM. For the same molecule, the IC90 [12] was 2400 nM, the IC95 [12] was 29000 nM and the IC50 [13] was 430 nM. The IC90 [13] was 6600 nM, the IC95 [13] was 13000 nM and the IC50 [14] was 580 ± 60 nM. The IC80 [14] was 12000 ± 3000 nM, the “Platinum drug uptake (separate comparison experiment)” value [15] was 0.0065 ± 0.0004 nmol/mg protein and the Platinum drug uptake ([15]; A2780ADR, [Drug] 0.20 μM, three hours) was 0.0011 ± 0.0004 nmol/mg protein. For the same molecule, the Platinum drug uptake ([15]; A2780ADR, [Drug] 1.0 μM, three hours) was 0.0039 ± 0.0001 nmol/mg protein, the Platinum drug uptake ([15]; A2780ADR, [Drug] 5.0 μM, three hours) was 0.023 ± 0.001 nmol/mg protein and the “Fold Resistance (IC50, OVCAR8OXR vs OVCAR8)” value ([16]; 72-h exposure) was 14 fold. For the same molecule, the “Fold Resistance (IC80, OVCAR8OXR vs OVCAR8)” value ([16]; 72-h exposure) was 3.3 fold, the IC50 ([16]; 72-h exposure) was 8200 ± 1300 nM and the IC80 ([16]; 72-h exposure) was 40000 ± 2000 nM. The Platinum drug uptake ([17]; A2780, [Drug] 0.20 μM) was 0.0029 ± 0.0006 nmol/mg protein, the Platinum drug uptake ([17]; A2780, [Drug] 1.0 μM) was 0.0093 ± 0.0004 nmol/mg protein and the Platinum drug uptake ([17]; A2780, [Drug] 5.0 μM) was 0.050 ± 0.004 nmol/mg protein. The “Platinum drug uptake (separate comparison experiment)” value ([17]; A2780, single drug 1.0 μM or oxaliplatin 1.0 μM + doxorubicin 1.0 μM) was 0.011 ± 0.000 nmol/mg protein.

In the case of `COc1cccc2c1C(=O)c1c(O)c3c(c(O)c1C2=O)C[C@@](O)(C(=O)CO)C[C@@H]3O[C@H]1C[C@H](N)[C@H](O)[C@H](C)O1` [DOX, doxorubicin], the IC50 ([1]; Mus musculus) is reported as 58 nM, the IC50 ([2]; Mus musculus) is reported as 45 nM and the IC50 ([3]; Mus musculus) is reported as 75 nM. For the same molecule, the IC50 ([4]; Mus musculus) was 9.1 nM, the IC50 ([5]; Mus musculus) was 6.5 nM and the IC50 ([6]; Homo sapiens, HT-29) was 38 nM. It also gave an IC50 ([7]; Homo sapiens, MDA-MB-231) of 75 nM, an IC50 ([8]; Homo sapiens) of 41 nM and an IC50 (U2OS human osteosarcoma; Homo sapiens, U2OS) of 13 nM. It also gave an IC50 ([9]; Homo sapiens, A549) of 23 nM, an IC50 ([10]; Homo sapiens, HL-60) of 43 nM and an IC95 [11] of 160 nM. For the same molecule, the IC50 ([11]; Homo sapiens) was 11 nM, the IC90 ([11]; Homo sapiens) was 75 nM and the IC95 [12] was 1600 nM. For the same molecule, the IC50 ([12]; Homo sapiens, A2780 ADR) was 54 nM, the IC90 ([12]; Homo sapiens, A2780 ADR) was 620 nM and the IC95 [13] was 540 nM. For the same molecule, the IC50 ([13]; Homo sapiens) was 50 nM, the IC90 ([13]; Homo sapiens) was 390 nM and the IC50 ([14]; Homo sapiens, OVCAR-8) was 86 ± 3 nM. For the same molecule, the IC80 ([14]; Homo sapiens, OVCAR-8) was 410 ± 20 nM, the Platinum drug uptake ([18]; 0.2 μM) was 0.023 ± 0.002 nmol/mg protein and the Platinum drug uptake ([18]; 1 μM) was 0.12 ± 0.01 nmol/mg protein. For the same molecule, the Platinum drug uptake ([18]; 5 μM) was 0.63 ± 0.03 nmol/mg protein, the Platinum drug uptake ([15]; human, 3 h, 0.2 μM) was 0.0087 ± 0.0008 nmol/mg protein and the Platinum drug uptake ([15]; human, 3 h, 1 μM) was 0.051 ± 0.001 nmol/mg protein. For the same molecule, the Platinum drug uptake ([15]; human, 3 h, 5 μM) was 0.36 ± 0.07 nmol/mg protein, the IC50 ([16]; Homo sapiens, 72 h) was 250 ± 10 nM and the IC80 ([16]; Homo sapiens, 72 h) was 740 ± 50 nM. For the same molecule, the “Fold Resistance (IC50, OVCAR8OXR vs OVCAR8)” value ([16]; 72-h exposure) was 2.9 fold and the “Fold Resistance (IC80, OVCAR8OXR vs OVCAR8)” value ([16]; 72-h exposure) was 1.8 fold.

Reference: patent US11203608B2, “Platinum-containing compounds, and related compositions and uses thereof” (Massachusetts Institute of Technology, priority 2019, dated 2021)
